According to US20260297060A1, “COMPOUNDS FOR THE DEGRADATION OF MUTANT BRAF” (C4 THERAPEUTICS, INC., priority 2023, published 2026):
Like-named read-outs stand apart in the source and are kept apart here.

Test: Pharmacokinetics in female BALB/c nude mice bearing A375 xenografts, 1 day dosing (PK and PD study): plasma, tumor and brain concentrations, AUC
Assay type: in vivo
Conditions: for Mean Concentration in Brain ± SEM / Mean Concentration in Plasma ± SEM / Mean Concentration in Tumor ± SEM: BQL: below the lower limit of quantitation; for AUC at 24 h: read-out: Brain AUC at 24 hours, Average
Text: The concentrations of Dabrafenib, Compound 26 and Compound 141 in the treatment of female BALB/c nude mice bearing A375 xenografts are shown in Table 62-Table 72 and FIG. 52-FIG. 73.

[1] = 1.5 mg/kg p.o. BID × 1 day, post 2nd dose, 48 h
[2] = 2 mg/kg p.o. TID × 1 day, post 3rd dose, 48 h
[3] = 3 mg/kg p.o. BID × 1 day, post 2nd dose, 36 h
[4] = mouse, brain, po, 1.5 mg/kg, 1.5 mg/kg p.o. BID × 1 day, post 2nd dose, read-out: Mean Concentration in Brain ± SEM
[5] = mouse, brain, po, 2 mg/kg, 2 mg/kg p.o. TID × 1 day, post 3rd dose, read-out: Mean Concentration in Brain ± SEM
[6] = mouse, brain, po, 3 mg/kg, 3 mg/kg p.o. BID × 1 day, post 2nd dose, read-out: Mean Concentration in Brain ± SEM
[7] = mouse, brain, po, 6 mg/kg, 6 mg/kg p.o. QD × 1 day, read-out: Mean Concentration in Brain ± SEM
[8] = mouse, brain, po, 10 mg/kg, 10 mg/kg p.o. BID × 1 day, post 2nd dose, read-out: Mean Concentration in Brain ± SEM
[9] = mouse, plasma, po, 1.5 mg/kg, 1.5 mg/kg p.o. BID × 1 day, post 1st dose, read-out: Mean Concentration in Plasma ± SEM
[10] = mouse, plasma, po, 1.5 mg/kg, 1.5 mg/kg p.o. BID × 1 day, post 2nd dose, read-out: Mean Concentration in Plasma ± SEM
[11] = mouse, plasma, po, 2 mg/kg, 2 mg/kg p.o. TID × 1 day, post 1st dose, read-out: Mean Concentration in Plasma ± SEM
[12] = mouse, plasma, po, 2 mg/kg, 2 mg/kg p.o. TID × 1 day, post 2nd dose, read-out: Mean Concentration in Plasma ± SEM
[13] = mouse, plasma, po, 2 mg/kg, 2 mg/kg p.o. TID × 1 day, post 3rd dose, read-out: Mean Concentration in Plasma ± SEM
[14] = mouse, plasma, po, 3 mg/kg, 3 mg/kg p.o. BID × 1 day, post 1st dose, read-out: Mean Concentration in Plasma ± SEM

SMILES: CCN(C)S(=O)(=O)Nc1ccc(F)c(Oc2ccc3ncn([C@H]4COC5(CCN(C6CC7(C6)CN(c6cc8c(cc6F)c(N6CCC(=O)NC6=O)nn8C)C7)CC5)C4)c(=O)c3c2)c1C#N [Compound 26, (3R)-3-[6-[2-cyano-3-[[ethyl(methyl)sulfamoyl]amino]-6-fluoro-phenoxy]-4-oxo-quinazolin-3-yl]-8-[2-[3-(2,4-dioxohexahydropyrimidin-1-yl)-5-fluoro-1-methyl-indazol-6-yl]-2-azaspiro[3.3]heptan-6-yl]-1-oxa-8-azaspiro[4.5]decane]
- Mean Concentration in Brain ± SEM (1.5 mg/kg p.o. BID × 1 day, post 2nd dose, 24 h): BQL^a
- Mean Concentration in Brain ± SEM [1]: BQL
- Mean Concentration in Plasma ± SEM [1]: BQL
- Mean Concentration in Brain ± SEM (2 mg/kg p.o. TID × 1 day, post 3rd dose, 24 h): BQL^a
- Mean Concentration in Brain ± SEM [2]: BQL
- Mean Concentration in Plasma ± SEM [2]: BQL
- Mean Concentration in Tumor ± SEM [2]: BQL
- Mean Concentration in Brain ± SEM (3 mg/kg p.o. BID × 1 day, post 2nd dose, 24 h): BQL^a
- Mean Concentration in Brain ± SEM [3]: BQL
- Mean Concentration in Tumor ± SEM [3]: BQL
- Mean Concentration in Brain ± SEM (3 mg/kg p.o. BID × 1 day, post 2nd dose, 48 h): BQL
- Mean Concentration in Brain ± SEM (6 mg/kg p.o. QD × 1 day, 24 h): BQL^a
- Mean Concentration in Brain ± SEM (6 mg/kg p.o. QD × 1 day, 48 h): BQL
- Mean Concentration in Brain ± SEM (10 mg/kg p.o. BID × 1 day, post 2nd dose, 24 h): BQL^a
- Mean Concentration in Brain ± SEM (10 mg/kg p.o. BID × 1 day, post 2nd dose, 48 h): BQL
- concentration at 1 h [4]: 25 ± 3.74 ng/g
- concentration at 4 h [4]: 21.8 ± 3.64 ng/g
- concentration at 10 h [4]: 9.78 ± 0.841 ng/g
- concentration at 1 h [5]: 66.5 ± 11.7 ng/g
- concentration at 4 h [5]: 26.9 ± 2.99 ng/g
- concentration at 10 h [5]: 23 ± 7.44 ng/g
- concentration at 0.25 h [6]: 29.7 ng/g
- concentration at 0.5 h [6]: 41 ± 4.05 ng/g
- concentration at 1 h [6]: 89.1 ± 25 ng/g
- concentration at 2 h [6]: 99.5 ± 11.9 ng/g
- concentration at 4 h [6]: 35.8 ± 6.52 ng/g
- concentration at 10 h [6]: 14.5 ± 0.737 ng/g
- concentration at 1 h [7]: 167 ± 27.6 ng/g
- concentration at 4 h [7]: 79.2 ± 21.8 ng/g
- concentration at 10 h [7]: 30.8 ± 8.11 ng/g
- concentration at 1 h [8]: 313 ± 41.7 ng/g
- concentration at 4 h [8]: 185 ± 18.2 ng/g
- concentration at 10 h [8]: 80.4 ± 8.59 ng/g
- AUC at 24 h (mouse, brain, po, 1.5 mg/kg p.o. BID × 1 day): 233 ng·h/mL
- AUC at 24 h (mouse, brain, po, 2 mg/kg p.o. TID × 1 day): 451 ng·h/mL
- AUC at 24 h (mouse, brain, po, 3 mg/kg p.o. BID × 1 day): 522 ng·h/mL
- AUC at 24 h (mouse, brain, po, 6 mg/kg p.o. QD × 1 day): 915 ng·h/mL
- AUC at 24 h (mouse, brain, po, 10 mg/kg p.o. BID × 1 day): 2100 ng·h/mL
- concentration at 0.25 h [9]: 1180 ± 103 ng/mL
- concentration at 0.5 h [9]: 2620 ± 182 ng/mL
- concentration at 1 h [9]: 3790 ± 553 ng/mL
- concentration at 2 h [9]: 3090 ± 346 ng/mL
- concentration at 4 h [9]: 1110 ± 339 ng/mL
- concentration at 8 h [9]: 318 ± 78.2 ng/mL
- concentration at 12 h (mouse, plasma, po, 1.5 mg/kg, 1.5 mg/kg p.o. BID × 1 day, post 1st dose, 12 h, read-out: Mean Concentration in Plasma ± SEM): 121 ± 6.74 ng/mL
- concentration at 0.25 h [10]: 629 ± 24.4 ng/mL
- concentration at 0.5 h [10]: 1580 ± 108 ng/mL
- concentration at 1 h [10]: 1820 ± 86.6 ng/mL
- concentration at 2 h [10]: 2930 ± 312 ng/mL
- concentration at 4 h [10]: 1740 ± 355 ng/mL
- concentration at 10 h [10]: 541 ± 95.8 ng/mL
- concentration at 24 h (mouse, plasma, po, 1.5 mg/kg, 1.5 mg/kg p.o. BID × 1 day, post 2nd dose, 24 h, read-out: Mean Concentration in Plasma ± SEM): 4.74 ± 1.31 ng/mL
- concentration at 36 h (mouse, plasma, po, 1.5 mg/kg, 1.5 mg/kg p.o. BID × 1 day, post 2nd dose, 36 h, read-out: Mean Concentration in Plasma ± SEM): 0.889 ng/mL
- concentration at 0.25 h [11]: 1600 ± 272 ng/mL
- concentration at 0.5 h [11]: 2880 ± 289 ng/mL
- concentration at 1 h [11]: 3720 ± 77.7 ng/mL
- concentration at 2 h [11]: 2930 ± 635 ng/mL
- concentration at 4 h [11]: 1420 ± 56.7 ng/mL
- concentration at 8 h [11]: 283 ± 80.3 ng/mL
- concentration at 0.25 h [12]: 1390 ± 84.1 ng/mL
- concentration at 2 h [12]: 2720 ± 466 ng/mL
- concentration at 8 h [12]: 580 ± 166 ng/mL
- concentration at 0.25 h [13]: 1090 ± 75.2 ng/mL
- concentration at 0.5 h [13]: 2630 ± 81.7 ng/mL
- concentration at 1 h [13]: 3780 ± 584 ng/mL
- concentration at 2 h [13]: 3680 ± 376 ng/mL
- concentration at 4 h [13]: 1770 ± 127 ng/mL
- concentration at 10 h [13]: 1250 ± 411 ng/mL
- concentration at 24 h (mouse, plasma, po, 2 mg/kg, 2 mg/kg p.o. TID × 1 day, post 3rd dose, 24 h, read-out: Mean Concentration in Plasma ± SEM): 9.4 ± 3.31 ng/mL
- concentration at 36 h (mouse, plasma, po, 2 mg/kg, 2 mg/kg p.o. TID × 1 day, post 3rd dose, 36 h, read-out: Mean Concentration in Plasma ± SEM): 1.45 ng/mL
- concentration at 0.25 h [14]: 3010 ± 401 ng/mL
- concentration at 0.5 h [14]: 8140 ± 2030 ng/mL
- concentration at 1 h [14]: 7840 ± 1330 ng/mL
- concentration at 2 h [14]: 6910 ± 1450 ng/mL
